Measurements taken from patent US8399465B2, “Compounds with two fused bicyclic heteroaryl moieties as modulators of leukotriene A4 hydrolase” (Janssen Pharmaceutica NV, priority 2009, dated 2013).
Counter-ions that a name gives are not always drawn.

Legend:
[1] = target: T1, recombinant human LTA4 hydrolase (rhLTA4H) (Homo sapiens, UniProt P09960); assay: Recombinant human LTA4 hydrolase assay for LTA4 hydrolase inhibitor activity; format: biochemical; conditions: rhLTA4H, LTB4 by immunoassay; single determination or average of two or more; mark after value = form tested: ′ free base, ″ hydrochloride, ^ formate; read-out: IC50
T1 construct: made in house; host or cells: Spodoptera frugiperda (Sf-9) cells, baculovirus (pFastBac1)
T1 sequence (P09960 1-611): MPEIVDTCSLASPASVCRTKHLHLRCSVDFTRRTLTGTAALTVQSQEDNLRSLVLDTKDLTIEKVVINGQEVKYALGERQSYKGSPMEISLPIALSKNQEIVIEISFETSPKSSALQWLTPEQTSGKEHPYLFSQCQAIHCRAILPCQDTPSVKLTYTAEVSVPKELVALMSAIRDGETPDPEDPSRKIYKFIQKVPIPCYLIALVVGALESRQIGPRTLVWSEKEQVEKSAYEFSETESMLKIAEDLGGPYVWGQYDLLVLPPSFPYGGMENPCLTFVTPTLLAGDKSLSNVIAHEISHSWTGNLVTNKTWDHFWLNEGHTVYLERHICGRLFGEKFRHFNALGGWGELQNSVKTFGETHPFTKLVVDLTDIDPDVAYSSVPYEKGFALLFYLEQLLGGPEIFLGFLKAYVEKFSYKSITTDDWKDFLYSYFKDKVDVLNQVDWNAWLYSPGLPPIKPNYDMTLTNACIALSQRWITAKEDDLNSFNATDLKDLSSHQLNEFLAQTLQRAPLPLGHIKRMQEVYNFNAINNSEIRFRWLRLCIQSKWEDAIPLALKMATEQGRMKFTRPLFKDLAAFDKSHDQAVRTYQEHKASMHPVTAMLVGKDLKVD
Method in brief: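 LTB4 formation, measured by enzyme immunoassay, was the read-out. The enzyme, recombinant human LTA4H expressed in Sf-9 insect cells (10 ng per reaction), was exposed to compound for 10 min at room temperature before hydrolysed-ester LTA4 substrate was added for 30 min. Enzyme-free negatives were included.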

[2] = system: LTB4 production in murine blood (LTA4H); assay: LTB4 production by calcium ionophore-stimulated murine blood for LTA4H inhibitor activity; format: cell-based, CD-1 mice; conditions: Mus musculus; murine blood diluted 1 in 15, A23187 stimulated; single determination or average; mark after value = form tested: ′ free base, ″ hydrochloride, ^ formate; read-out: IC50
Protocol: Assay 2: LTB4 Production by Calcium Ionophore-Stimulated Murine Blood for LTA4H Inhibitor Activity
CD-1 mice were sacrificed, and blood was collected in heparin-containing syringes by cardiac puncture. […] After the microtiter plate contents were incubated for 15 min at 37° C. in a humidified incubator, calcium ionophore A23187 (Sigma Chemical Co., St. Louis, Mo.) was added to each sample well (final concentration=7 μg/mL). The incubation was continued under the same conditions for an additional 30 min to allow LTB4 formation. The reaction was terminated by centrifugation (833×g, 10 min at 4° C.), and supernatants were analyzed for LTB4 by a commercially available enzyme-linked immunoassay (Cayman Chemical Co.) according to the manufacturer's instructions. Positive controls, under essentially identical conditions but without addition of an inhibitor compound, and negative unstimulated controls, containing all assay components except calcium ionophore, were routinely run in each experiment. […] The values presented here are the result of a single determination or an average of two or more determinations.

Compound | IC50 [1] | IC50 [2]
CNC(=O)C1CCN(Cc2c[nH]c3cc(Oc4nc5ccccc5s4)ccc23)CC1 [Example 22, 1-[6-(Benzothiazol-2-yloxy)-1H-indol-3-ylmethyl]-piperidine-4-carboxylic acid methylamide] | 2 nM | 79 nM
O=C(C1CCN(Cc2c[nH]c3cc(Oc4nc5ccccc5s4)ccc23)CC1)N1CCCC1 [Example 23, {1-[6-(Benzothiazol-2-yloxy)-1H-indol-3-ylmethyl]-piperidin-4-yl}-pyrrolidin-1-yl-methanone] | 5 nM | 114 nM
NC(=O)[C@H]1CCCN(Cc2c[nH]c3cc(Oc4nc5ccccc5s4)ccc23)C1 [Example 27, (3S)-1-[6-(Benzothiazol-2-yloxy)-1H-indol-3-ylmethyl]-piperidine-3-carboxylic acid amide] | 19 nM | 136 nM
CCOC(=O)NC1CCN(Cc2c[nH]c3cc(Oc4nc5ccccc5s4)ccc23)CC1 [Example 29, {1-[6-(Benzothiazol-2-yloxy)-1H-indol-3-ylmethyl]-piperidin-4-yl}-carbamic acid ethyl ester] | 15 nM | 234 nM
c1ccc2sc(Oc3cnc4c(CN5CCCCC5)c[nH]c4c3)nc2c1 [Example 31, 2-(3-Piperidin-1-ylmethyl-1H-pyrrolo[3,2-b]pyridin-6-yloxy)-benzothiazole] | 55 nM | 188 nM
c1ccc2sc(Oc3cnc4c(CN5CCOCC5)c[nH]c4c3)nc2c1 [Example 32, 2-(3-Morpholin-4-ylmethyl-1H-pyrrolo[3,2-b]pyridin-6-yloxy)-benzothiazole] | 96 nM | 258 nM
NC(=O)C1CCN(Cc2c[nH]c3cc(Oc4nc5ccccc5s4)cnc23)CC1 [Example 33, 1-[6-(Benzothiazol-2-yloxy)-1H-pyrrolo[3,2-b]pyridin-3-ylmethyl]-piperidine-4-carboxylic acid amide] | 42 nM | 1520 nM
c1cnc2nc(Oc3ccc4c(CN5CCc6c(sc7ccccc67)C5)c[nH]c4c3)sc2c1 [Example 35, 2-[6-(Thiazolo[4,5-b]pyridin-2-yloxy)-1H-indol-3-ylmethyl]-1,2,3,4-tetrahydro-benzo[4,5]thieno[2,3-c]pyridine] | 34 nM | 234 nM
Fc1ccc2sc3c(c2c1)CN(Cc1c[nH]c2cc(Oc4nc5ncccc5s4)ccc12)CC3 [Example 38, 8-Fluoro-2-[6-(thiazolo[4,5-b]pyridin-2-yloxy)-1H-indol-3-ylmethyl]-1,2,3,4-tetrahydro-benzo[4,5]thieno[3,2-c]pyridine] | 29 nM | 350 nM
c1cnc2nc(Oc3ccc4c(CN5CCOCC5)c[nH]c4c3)sc2c1 [Example 40, 2-(3-Morpholin-4-ylmethyl-1H-indol-6-yloxy)-thiazolo[4,5-b]pyridine] | 2 nM | 23 nM
c1cnc2nc(Oc3ccc4c(CN5CCSCC5)c[nH]c4c3)sc2c1 [Example 42, 2-(3-Thiomorpholin-4-ylmethyl-1H-indol-6-yloxy)-thiazolo[4,5-b]pyridine] | < 1 nM | 27 nM
CC(=O)N[C@H]1C[C@H]2CC[C@@H](C1)N2Cc1c[nH]c2cc(Oc3nc4cccnc4s3)ccc12 [Example 43, meso-endo-N-{8-[6-(Thiazolo[5,4-b]pyridin-2-yloxy)-1H-indol-3-ylmethyl]-8-aza-bicyclo[3.2.1]oct-3-yl}-acetamide] | 6 nM | 409 nM
O=C1C[C@@H](O)CN1C1CCN(Cc2c[nH]c3cc(Oc4nc5ccccc5s4)ccc23)CC1 [Example 44, (4R)-1-{1-[6-(Benzothiazol-2-yloxy)-1H-indol-3-ylmethyl]-piperidin-4-yl}-4-hydroxy-pyrrolidin-2-one] | 6 nM | 222 nM
O=C(O)CC1CCN(Cc2c[nH]c3cc(Oc4nc5ccccc5s4)ccc23)CC1 [Example 46, {1-[6-(Benzothiazol-2-yloxy)-1H-indol-3-ylmethyl]-piperidin-4-yl}-acetic acid] | 15 nM | 667 nM
O=C(O)C1CCCN(Cc2c[nH]c3cc(Oc4nc5ccccc5s4)ccc23)C1 (stereo not drawn) [Example 47, 1-[6-(Benzothiazol-2-yloxy)-1H-indol-3-ylmethyl]-piperidine-3-carboxylic acid] | 21 nM | 870 nM
CC(=O)N(CC(=O)O)[C@H]1C[C@H]2CC[C@@H](C1)N2Cc1c[nH]c2ccc(Oc3nc4ccccc4s3)cc12 [Example 49, meso-endo-(Acetyl-{8-[5-(benzothiazol-2-yloxy)-1H-indol-3-ylmethyl]-8-aza-bicyclo[3.2.1]oct-3-yl}-amino)-acetic acid] | 13 nM | 10000 nM

More lines, in order of falling IC50 [1], values ahead:

IC50 [1] | IC50 [2] | Compound
77 nM | 423 nM | Clc1ccc2sc3c(c2c1)CN(Cc1c[nH]c2cc(Oc4nc5ncccc5s4)ccc12)CC3 [Example 36, 8-Chloro-2-[6-(thiazolo[4,5-b]pyridin-2-yloxy)-1H-indol-3-ylmethyl]-1,2,3,4-tetrahydro-benzo[4,5]thieno[3,2-c]pyridine formate]
45 nM | 180 nM | c1ccc2sc(Oc3ccc4c(CN5CC6CNCC6C5)c[nH]c4c3)nc2c1 (stereo not drawn) [Example 51, 2-[3-(Hexahydro-pyrrolo[3,4-c]pyrrol-2-ylmethyl)-1H-indol-6-yloxy]-benzothiazole 2HCl]
28 nM | 739 nM | NC1CCN(Cc2c[nH]c3cc(Oc4nc5ccccc5s4)ccc23)CC1 [Example 50, 1-[6-(Benzothiazol-2-yloxy)-1H-indol-3-ylmethyl]-piperidin-4-ylamine 2HCl]
20 nM | 401 nM | c1cnc2nc(Oc3ccc4c(CN5CCc6sc7ccccc7c6C5)c[nH]c4c3)sc2c1 [Example 34, 2-[6-(Thiazolo[4,5-b]pyridin-2-yloxy)-1H-indol-3-ylmethyl]-1,2,3,4-tetrahydro-benzo[4,5]thieno[3,2-c]pyridine formate]
15 nM | 79 nM | OCC1CCN(Cc2c[nH]c3cc(Oc4nc5ccccc5s4)ccc23)CC1 [Example 28, {1-[6-(Benzothiazol-2-yloxy)-1H-indol-3-ylmethyl]-piperidin-4-yl}-methanol]
11 nM | 143 nM | O=C1CCCN1C1CCN(Cc2c[nH]c3cc(Oc4nc5ccccc5s4)ccc23)CC1 [Example 30, 1-{1-[6-(Benzothiazol-2-yloxy)-1H-indol-3-ylmethyl]-piperidin-4-yl}-pyrrolidin-2-one]
8 nM | 310 nM | Clc1ccc2sc3c(c2c1)CCN(Cc1c[nH]c2cc(Oc4nc5ncccc5s4)ccc12)C3 [Example 37, 6-Chloro-2-[6-(thiazolo[4,5-b]pyridin-2-yloxy)-1H-indol-3-ylmethyl]-1,2,3,4-tetrahydro-benzo[4,5]thieno[2,3-c]pyridine formate]
7 nM | 188 nM | CN1CCN(C(=O)C2CCN(Cc3c[nH]c4cc(Oc5nc6ccccc6s5)ccc34)CC2)CC1 [Example 26, {1-[6-(Benzothiazol-2-yloxy)-1H-indol-3-ylmethyl]-piperidin-4-yl}-(4-methyl-piperazin-1-yl)-methanone]
6 nM | 1340 nM | O=C(O)C1CCN(Cc2c[nH]c3cc(Oc4nc5ccccc5s4)ccc23)CC1 [Example 45, 1-[6-(Benzothiazol-2-yloxy)-1H-indol-3-ylmethyl]-piperidine-4-carboxylic acid]
2 nM | 341 nM | O=C(C1CCN(Cc2c[nH]c3cc(Oc4nc5ccccc5s4)ccc23)CC1)N1CCCCC1 [Example 24, {1-[6-(Benzothiazol-2-yloxy)-1H-indol-3-ylmethyl]-piperidin-4-yl}-piperidin-1-yl-methanone]
2 nM | 100 nM | O=C(C1CCN(Cc2c[nH]c3cc(Oc4nc5ccccc5s4)ccc23)CC1)N1CCOCC1 [Example 25, {1-[6-(Benzothiazol-2-yloxy)-1H-indol-3-ylmethyl]-piperidin-4-yl}-morpholin-4-yl-methanone]
